Where two headings read alike, the source gives them in different places.
Assays:
[1] = target: YANK1 (Homo sapiens, UniProt Q8WU08); conditions: 1 µM; binder
[2] = target: FES (Homo sapiens, UniProt P07332); conditions: 1 µM; binder
[3] = target: PRKCD (Homo sapiens, UniProt Q05655); conditions: 1 µM; binder
[4] = target: T1, FLT3 (Homo sapiens, UniProt P36888); conditions: 1 µM; binder
T1 sequence (P36888 1-993): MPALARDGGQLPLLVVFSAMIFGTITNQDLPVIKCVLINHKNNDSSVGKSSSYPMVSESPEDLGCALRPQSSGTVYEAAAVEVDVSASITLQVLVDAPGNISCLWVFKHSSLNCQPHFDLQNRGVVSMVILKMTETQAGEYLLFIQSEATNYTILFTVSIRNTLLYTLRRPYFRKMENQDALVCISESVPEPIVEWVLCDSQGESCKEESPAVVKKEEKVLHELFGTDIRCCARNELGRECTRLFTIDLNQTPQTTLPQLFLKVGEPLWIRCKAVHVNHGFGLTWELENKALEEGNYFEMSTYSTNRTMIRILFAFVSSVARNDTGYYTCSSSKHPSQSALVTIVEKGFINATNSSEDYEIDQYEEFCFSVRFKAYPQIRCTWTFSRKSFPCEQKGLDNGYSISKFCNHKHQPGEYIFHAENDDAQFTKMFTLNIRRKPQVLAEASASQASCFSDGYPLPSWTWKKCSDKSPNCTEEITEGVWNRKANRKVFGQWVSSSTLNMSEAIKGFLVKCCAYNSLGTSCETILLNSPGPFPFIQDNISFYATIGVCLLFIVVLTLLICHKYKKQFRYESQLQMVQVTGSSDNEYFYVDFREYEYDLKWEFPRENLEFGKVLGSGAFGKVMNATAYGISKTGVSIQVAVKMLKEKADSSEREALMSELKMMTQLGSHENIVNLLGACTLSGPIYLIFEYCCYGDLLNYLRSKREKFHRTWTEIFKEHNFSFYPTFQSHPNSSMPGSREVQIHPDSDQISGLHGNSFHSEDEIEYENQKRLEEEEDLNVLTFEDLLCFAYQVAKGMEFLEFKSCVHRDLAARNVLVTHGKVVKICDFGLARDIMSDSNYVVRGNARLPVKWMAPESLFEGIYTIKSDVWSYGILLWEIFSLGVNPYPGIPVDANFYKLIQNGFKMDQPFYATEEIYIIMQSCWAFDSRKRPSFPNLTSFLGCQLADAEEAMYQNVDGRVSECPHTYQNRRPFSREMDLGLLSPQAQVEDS

[5] = target: PRKCE (Homo sapiens, UniProt Q02156); conditions: 1 µM; binder
[6] = target: PIK3CA(Q546K) (Homo sapiens, UniProt P42336, Q546K); conditions: 1 µM; binder
[7] = target: ASK2 (Homo sapiens, UniProt O95382); conditions: 1 µM; binder
[8] = target: PKAC-beta (Homo sapiens, UniProt P22694); conditions: 1 µM; binder
[9] = target: PIKFYVE (Homo sapiens, UniProt Q9Y2I7); conditions: 1 µM; binder
[10] = target: SLK (Homo sapiens, UniProt Q9H2G2); conditions: 1 µM; binder
[11] = target: CAMK1D (Homo sapiens, UniProt Q8IU85); conditions: 1 µM; binder
[12] = target: ROCK1 (Homo sapiens, UniProt Q13464); conditions: 1 µM; binder
[13] = target: PLK2 (Homo sapiens, UniProt Q9NYY3); conditions: 1 µM; binder
[14] = target: NDR2 (Homo sapiens, UniProt Q9Y2H1); conditions: 1 µM; binder
[15] = target: PRKD3 (Homo sapiens, UniProt O94806); conditions: 1 µM; binder
[16] = target: MAP3K4 (Homo sapiens, UniProt Q9Y6R4); conditions: 1 µM; binder
[17] = target: RPS6KA2 (Homo sapiens, UniProt Q15349); conditions: binder
[18] = target: MEK2 (Homo sapiens, UniProt P36507); conditions: 1 µM; binder
[19] = target: MAPKAPK5 (Homo sapiens, UniProt Q8IW41); conditions: 1 µM; binder
[20] = target: DYRK2 (Homo sapiens, UniProt Q92630); conditions: 1 µM; binder
[21] = target: EPHA7 (Homo sapiens, UniProt Q15375); conditions: 1 µM; binder
Chain of EPHA7 (Q15375 whole entry): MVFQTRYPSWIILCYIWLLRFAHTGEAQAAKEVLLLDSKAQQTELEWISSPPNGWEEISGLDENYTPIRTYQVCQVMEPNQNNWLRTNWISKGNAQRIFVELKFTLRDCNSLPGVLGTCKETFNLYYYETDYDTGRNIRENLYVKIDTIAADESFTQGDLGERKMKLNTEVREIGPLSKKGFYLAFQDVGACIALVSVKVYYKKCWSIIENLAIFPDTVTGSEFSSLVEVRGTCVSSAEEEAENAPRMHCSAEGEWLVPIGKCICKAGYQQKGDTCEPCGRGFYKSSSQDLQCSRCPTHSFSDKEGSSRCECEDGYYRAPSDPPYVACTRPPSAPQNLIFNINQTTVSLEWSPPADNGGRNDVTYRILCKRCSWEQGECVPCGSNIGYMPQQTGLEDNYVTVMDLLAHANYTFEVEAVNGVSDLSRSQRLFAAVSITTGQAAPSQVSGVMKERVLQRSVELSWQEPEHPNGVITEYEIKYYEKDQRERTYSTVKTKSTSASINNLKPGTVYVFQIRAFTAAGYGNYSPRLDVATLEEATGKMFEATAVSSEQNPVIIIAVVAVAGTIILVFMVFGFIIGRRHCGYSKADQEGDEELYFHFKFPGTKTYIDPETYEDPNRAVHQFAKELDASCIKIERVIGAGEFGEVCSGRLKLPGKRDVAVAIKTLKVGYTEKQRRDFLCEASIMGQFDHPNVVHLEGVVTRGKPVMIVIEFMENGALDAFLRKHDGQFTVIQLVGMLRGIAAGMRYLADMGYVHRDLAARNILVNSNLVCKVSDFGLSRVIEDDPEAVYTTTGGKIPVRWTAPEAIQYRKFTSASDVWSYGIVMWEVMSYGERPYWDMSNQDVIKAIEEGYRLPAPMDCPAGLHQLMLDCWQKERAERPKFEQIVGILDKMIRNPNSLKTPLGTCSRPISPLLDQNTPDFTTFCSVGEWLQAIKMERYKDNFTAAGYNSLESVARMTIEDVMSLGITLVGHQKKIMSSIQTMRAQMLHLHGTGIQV

Chain of RPS6KA2 (Q15349 whole entry): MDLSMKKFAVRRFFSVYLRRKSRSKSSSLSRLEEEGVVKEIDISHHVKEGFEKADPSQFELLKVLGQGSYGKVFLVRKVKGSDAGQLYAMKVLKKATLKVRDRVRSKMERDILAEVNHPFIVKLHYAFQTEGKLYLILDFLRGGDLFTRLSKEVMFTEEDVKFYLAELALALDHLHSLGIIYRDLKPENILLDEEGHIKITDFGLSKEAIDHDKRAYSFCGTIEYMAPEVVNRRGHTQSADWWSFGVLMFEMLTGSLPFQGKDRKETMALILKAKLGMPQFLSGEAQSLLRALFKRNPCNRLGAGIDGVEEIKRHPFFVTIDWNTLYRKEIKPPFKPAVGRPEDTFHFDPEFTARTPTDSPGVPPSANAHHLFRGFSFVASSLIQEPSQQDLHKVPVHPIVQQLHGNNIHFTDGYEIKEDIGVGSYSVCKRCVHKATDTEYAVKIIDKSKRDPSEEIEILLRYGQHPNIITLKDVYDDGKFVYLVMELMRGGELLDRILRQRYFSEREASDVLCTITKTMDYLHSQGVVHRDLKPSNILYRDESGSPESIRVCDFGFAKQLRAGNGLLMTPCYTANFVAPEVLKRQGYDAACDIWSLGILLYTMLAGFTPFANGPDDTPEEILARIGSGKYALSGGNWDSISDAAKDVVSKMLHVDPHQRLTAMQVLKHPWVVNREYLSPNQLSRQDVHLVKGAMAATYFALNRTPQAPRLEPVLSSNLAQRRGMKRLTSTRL
Chain of SLK (Q9H2G2 whole entry): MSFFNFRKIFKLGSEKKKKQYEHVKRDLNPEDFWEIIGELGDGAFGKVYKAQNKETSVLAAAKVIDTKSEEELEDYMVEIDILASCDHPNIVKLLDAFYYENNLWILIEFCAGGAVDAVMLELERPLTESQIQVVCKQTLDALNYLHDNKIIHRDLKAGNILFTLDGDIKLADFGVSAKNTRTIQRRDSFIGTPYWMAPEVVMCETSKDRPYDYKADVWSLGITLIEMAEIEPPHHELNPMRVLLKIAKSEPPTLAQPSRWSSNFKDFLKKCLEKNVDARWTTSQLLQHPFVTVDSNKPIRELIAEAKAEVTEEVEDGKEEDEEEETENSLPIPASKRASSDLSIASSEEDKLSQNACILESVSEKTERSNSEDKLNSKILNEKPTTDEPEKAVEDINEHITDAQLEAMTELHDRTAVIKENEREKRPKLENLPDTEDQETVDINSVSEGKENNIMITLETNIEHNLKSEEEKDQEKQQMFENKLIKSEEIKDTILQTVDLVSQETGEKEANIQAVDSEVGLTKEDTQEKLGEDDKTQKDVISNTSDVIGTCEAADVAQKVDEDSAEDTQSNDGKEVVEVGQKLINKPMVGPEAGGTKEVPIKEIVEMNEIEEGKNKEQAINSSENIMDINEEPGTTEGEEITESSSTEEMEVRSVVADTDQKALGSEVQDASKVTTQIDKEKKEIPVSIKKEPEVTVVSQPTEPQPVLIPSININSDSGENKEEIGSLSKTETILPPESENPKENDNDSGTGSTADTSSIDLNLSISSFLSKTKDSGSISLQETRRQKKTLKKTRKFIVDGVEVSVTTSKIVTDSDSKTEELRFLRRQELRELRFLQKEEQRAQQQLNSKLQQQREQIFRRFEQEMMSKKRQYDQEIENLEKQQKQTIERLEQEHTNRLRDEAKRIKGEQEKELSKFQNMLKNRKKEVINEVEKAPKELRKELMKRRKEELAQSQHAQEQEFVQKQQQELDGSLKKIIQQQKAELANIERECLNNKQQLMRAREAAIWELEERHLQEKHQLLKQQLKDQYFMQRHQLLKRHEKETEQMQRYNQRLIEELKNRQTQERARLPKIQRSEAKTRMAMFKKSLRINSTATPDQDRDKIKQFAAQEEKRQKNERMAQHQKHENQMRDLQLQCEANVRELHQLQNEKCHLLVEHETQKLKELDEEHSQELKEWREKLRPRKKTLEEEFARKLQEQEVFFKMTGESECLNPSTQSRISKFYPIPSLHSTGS
Chain of PRKCE (Q02156 whole entry): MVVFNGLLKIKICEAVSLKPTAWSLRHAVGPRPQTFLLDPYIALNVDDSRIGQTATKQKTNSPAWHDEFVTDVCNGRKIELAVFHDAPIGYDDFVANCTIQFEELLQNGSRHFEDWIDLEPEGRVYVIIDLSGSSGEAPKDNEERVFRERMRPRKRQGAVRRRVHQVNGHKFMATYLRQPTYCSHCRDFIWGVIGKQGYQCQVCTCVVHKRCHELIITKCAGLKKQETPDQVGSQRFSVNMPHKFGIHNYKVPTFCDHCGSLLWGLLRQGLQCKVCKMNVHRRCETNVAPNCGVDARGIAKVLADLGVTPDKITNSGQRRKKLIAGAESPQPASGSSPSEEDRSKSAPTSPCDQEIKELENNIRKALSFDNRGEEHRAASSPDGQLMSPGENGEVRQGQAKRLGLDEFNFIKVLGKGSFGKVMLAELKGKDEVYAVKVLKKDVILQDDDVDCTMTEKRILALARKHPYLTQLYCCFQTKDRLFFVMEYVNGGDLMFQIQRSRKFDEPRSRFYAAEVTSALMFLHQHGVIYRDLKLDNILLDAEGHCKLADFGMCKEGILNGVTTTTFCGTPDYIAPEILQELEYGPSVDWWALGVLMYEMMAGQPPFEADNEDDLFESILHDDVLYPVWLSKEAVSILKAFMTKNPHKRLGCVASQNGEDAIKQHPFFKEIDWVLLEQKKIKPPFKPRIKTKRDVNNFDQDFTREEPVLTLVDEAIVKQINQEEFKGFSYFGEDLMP
Chain of FES (P07332 whole entry): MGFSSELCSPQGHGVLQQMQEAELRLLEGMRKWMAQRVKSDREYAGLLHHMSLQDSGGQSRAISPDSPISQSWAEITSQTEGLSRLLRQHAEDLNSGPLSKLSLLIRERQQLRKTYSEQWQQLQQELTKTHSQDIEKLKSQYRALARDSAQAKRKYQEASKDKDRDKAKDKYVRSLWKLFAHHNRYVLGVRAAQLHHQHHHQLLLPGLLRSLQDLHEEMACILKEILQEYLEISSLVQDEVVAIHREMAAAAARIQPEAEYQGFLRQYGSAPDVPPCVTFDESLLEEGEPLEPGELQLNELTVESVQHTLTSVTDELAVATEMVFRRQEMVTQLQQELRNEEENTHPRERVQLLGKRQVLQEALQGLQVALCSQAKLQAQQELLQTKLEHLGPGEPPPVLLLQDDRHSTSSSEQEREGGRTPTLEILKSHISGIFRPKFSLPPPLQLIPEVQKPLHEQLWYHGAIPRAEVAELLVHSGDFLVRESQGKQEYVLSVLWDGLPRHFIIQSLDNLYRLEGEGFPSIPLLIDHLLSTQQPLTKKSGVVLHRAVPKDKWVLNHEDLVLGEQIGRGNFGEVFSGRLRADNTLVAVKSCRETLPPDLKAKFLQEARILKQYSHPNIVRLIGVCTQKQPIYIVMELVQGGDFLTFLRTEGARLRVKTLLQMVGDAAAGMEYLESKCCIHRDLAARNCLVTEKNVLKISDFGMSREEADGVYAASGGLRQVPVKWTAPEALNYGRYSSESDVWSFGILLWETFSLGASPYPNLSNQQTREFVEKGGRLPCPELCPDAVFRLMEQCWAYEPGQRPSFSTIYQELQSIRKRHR
Chain of YANK1 (Q8WU08 whole entry): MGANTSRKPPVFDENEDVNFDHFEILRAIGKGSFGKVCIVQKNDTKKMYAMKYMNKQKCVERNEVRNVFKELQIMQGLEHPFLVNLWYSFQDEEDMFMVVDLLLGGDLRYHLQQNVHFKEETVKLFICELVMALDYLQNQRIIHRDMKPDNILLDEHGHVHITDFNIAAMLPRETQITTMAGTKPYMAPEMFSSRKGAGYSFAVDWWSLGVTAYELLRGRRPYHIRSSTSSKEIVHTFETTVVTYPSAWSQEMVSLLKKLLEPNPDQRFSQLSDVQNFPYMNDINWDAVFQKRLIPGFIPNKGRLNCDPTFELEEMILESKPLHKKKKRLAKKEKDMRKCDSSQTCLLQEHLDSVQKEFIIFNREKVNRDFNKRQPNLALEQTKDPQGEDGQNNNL

With CNc1ncc2cc(-c3ccc(-c4cccc(C)n4)cc3Cl)c(=O)n(C[C@H]3OC[C@H](N)CO3)c2n1 [compound 6, G-5555] the “Percent Control” value [1] was 3.7%, the “Percent Control” value [2] was 84% and the “Percent Control” value [3] was 100%. The “Percent Control” value [4] was 100%, the “Percent Control” value [5] was 71% and the “Percent Control” value [6] was 100%. The “Percent Control” value [7] was 70%, the “Percent Control” value [8] was 95% and the “Percent Control” value [9] was 100%. The “Percent Control” value [10] was 33%, the “Percent Control” value [11] was 2.5% and the “Percent Control” value [12] was 100%. For the same molecule, the “Percent Control” value [13] was 84%, the “Percent Control” value [14] was 100% and the “Percent Control” value [15] was 20%. The “Percent Control” value [16] was 52%, the “Percent Control” value ([17]; Kin.Dom.1 N-terminal) was 57% and the “Percent Control” value ([17]; Kin.Dom.2 C-terminal, 1 µM) was 92%. The “Percent Control” value [18] was 1.4%, the “Percent Control” value [19] was 100% and the “Percent Control” value [20] was 100%. For the same molecule, the “Percent Control” value [21] was 100%.

— publication doi:10.1101/2021.04.08.439011v1 (biorxiv, 2021)
